# In patent US20170298056A1, “SMALL MOLECULE INHIBITORS OF HIV-1 ENTRY AND METHODS OF USE THEREOF” (Dana-Farber Cancer Institute, Inc., priority 2014, published 2017):
# System: A-MLV
# Test: Infection of human PBMC by control A-MLV
# Assay type: cell-based, amphotropic murine leukemia virus
# Conditions: range of tested concentrations
# Method: Peripheral blood mononuclear cells (PBMC). Human blood was purchased from Research Blood Components, who obtained a consent firm from each donor, according to the American Association of Blood Banks guidelines, PBMC were isolated from the whole blood using a Ficoll-Paque gradient (Ficoll-Paque PLUS, Amersham Biosciences) and activated at concentration of 10^6 live cells/ml for 3 days in RPMI-PBMC medium (RPMI-1640 supplemented with 20% FBS, 10% IL-2 (Hemagen, Columbia, Md.), 100 μg/ml primocin (InvivoGen, San Diego, Calif.)) with 4 μg/ml phytohemagglutinin (Sigma-Aldrich, St. Louis, Mo.). In some cases, cells were frozen, thawed and activated prior to the assay.
# Viral infection assay. Each test compound was serially diluted in DMSO in a 96-well B&W isoplate (PerkinElmer, Boston, Mass.) using an HP D300 Digital Dispenser, to a final volume of 450 nl. DMSO was used as a control. […] The activity of the firefly luciferase, which was used as a reporter protein in the system, was measured with a Centro LB 960 luminometer (Berthold Technologies, Oak Ridge, Tenn.). One hundred microliters of assay buffer (15 mM MgSO4, 15 mM KH2PO4/K2HPO4 pH 7.8, 1 mM ATP and 1 mM DTT) was injected to each well, followed by a 50 μl injection of 1 mM Dluciferin potassium salt (BD Pharmingen, San Jose, Calif.); luminescence was measured for 2 sec. […]
structure (smiles),measurement,value
O=C(N/N=C/c1ccc(O)cc1)Nc1cccc2nsnc12 [Compound 18A],effect on A-MLV infection,No significant effect
